From article PMC11525196 (Nature, 2024)
Positions count from the first letter of the chain named. Read-outs that look alike come from different tables or passages of the source. Values belong to the molecule of their own block, whether it stands above or below them.

How the values were obtained:
[1] = target: T1, LYCHOS (GPR155) (Homo sapiens, UniProt Q7Z3F1, A148W); test: SPR steady-state affinity; assay type: binding
T1 sequence (Q7Z3F1 1-870 A148W): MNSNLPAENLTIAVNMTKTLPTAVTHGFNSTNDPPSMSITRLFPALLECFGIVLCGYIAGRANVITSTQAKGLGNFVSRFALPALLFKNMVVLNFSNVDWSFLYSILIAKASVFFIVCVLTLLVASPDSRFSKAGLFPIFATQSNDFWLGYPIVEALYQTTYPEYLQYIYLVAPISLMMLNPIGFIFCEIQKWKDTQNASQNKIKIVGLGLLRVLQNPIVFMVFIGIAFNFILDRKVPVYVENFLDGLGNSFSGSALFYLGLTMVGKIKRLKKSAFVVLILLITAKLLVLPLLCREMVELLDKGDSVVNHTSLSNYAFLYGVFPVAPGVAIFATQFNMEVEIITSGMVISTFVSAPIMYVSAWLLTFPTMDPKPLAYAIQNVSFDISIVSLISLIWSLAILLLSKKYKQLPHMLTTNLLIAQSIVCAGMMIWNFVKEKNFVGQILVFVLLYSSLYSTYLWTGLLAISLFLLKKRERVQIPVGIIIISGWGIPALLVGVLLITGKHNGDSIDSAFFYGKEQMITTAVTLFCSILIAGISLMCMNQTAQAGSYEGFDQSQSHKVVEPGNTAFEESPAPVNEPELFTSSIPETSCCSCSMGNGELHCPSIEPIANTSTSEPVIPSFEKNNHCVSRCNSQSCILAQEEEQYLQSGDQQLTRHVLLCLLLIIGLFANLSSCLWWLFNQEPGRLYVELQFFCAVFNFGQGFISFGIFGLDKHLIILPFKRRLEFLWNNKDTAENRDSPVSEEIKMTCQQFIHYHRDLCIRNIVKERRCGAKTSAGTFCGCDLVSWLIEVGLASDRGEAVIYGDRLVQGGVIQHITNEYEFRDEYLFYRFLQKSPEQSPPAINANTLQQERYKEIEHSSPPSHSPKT

[2] = target: T2, LYCHOS (GPR155) (Homo sapiens, UniProt Q7Z3F1, N145A); test: SPR steady-state affinity; assay type: binding
T2 sequence (Q7Z3F1 1-870 N145A): T1 sequence (Q7Z3F1 1-870 A148W) with N145A, W148A

[3] = target: T3, LYCHOS (GPR155) (Homo sapiens, UniProt Q7Z3F1); test: SPR steady-state affinity; assay type: binding
T3 sequence (Q7Z3F1 1-870): T1 sequence (Q7Z3F1 1-870 A148W) with W148A

[4] = target: T4, LYCHOS (GPR155) (Homo sapiens, UniProt Q7Z3F1, L177W); test: SPR steady-state affinity; assay type: binding
T4 sequence (Q7Z3F1 1-870 L177W): T1 sequence (Q7Z3F1 1-870 A148W) with W148A, L177W

[5] = target: T5, LYCHOS(F352A/W678R/N145A)-Flag-NLuc (human, UniProt Q7Z3F1 1-870, F352A | W678R | N145A); test: FRET or BRET
T5 sequence: T1 sequence (Q7Z3F1 1-870 A148W) with N145A, W148A, F352A, W678R

[6] = target: T6, LYCHOS(N145A)-Flag-NLuc (human, UniProt Q7Z3F1 1-870, N145A); test: FRET or BRET
T6 sequence: T1 sequence (Q7Z3F1 1-870 A148W) with N145A, W148A

[7] = target: the molecule itself; test: cryo-EM structure
[8] = target: the molecule itself; test: cryo-EM structure; remark: listed apart in the source

B2: LYCHOS (GPR155), wild type, C-terminal Flag tag, expressed in Sf9 cells (natural protein, human)
chain: T1 sequence (Q7Z3F1 1-870 A148W) with W148A
stoichiometry N [7]: 2

B3: LYCHOS (GPR155), wild type, C-terminal Flag tag, expressed in Expi293F cells (natural protein, human)
chain: T1 sequence (Q7Z3F1 1-870 A148W) with W148A
stoichiometry N [8]: 2

Next, values leading:

Kd [1]: 3.38 mM
Kd [2]: 5.49 mM
Kd [3]: 1.62 mM
Kd [4]: 3.93 mM
Molecule: O=C(O)Cc1c[nH]c2ccccc12 [IAA, Indole-3-acetic acid]

BRET50 [5]: 0.03 ± 0.01
BRET50 [6]: 0.23 ± 0.06
B1: HA-cpmCitrine-NPRL2 (natural protein, UniProt Q8WTW4 1-380, looked up)
chain: MGSGCRIECIFFSEFHPTLGPKITYQVPEDFISRELFDTVQVYIITKPELQNKLITVTAMEKKLIGCPVCIEHKKYSRNALLFNLGFVCDAQAKTCALEPIVKKLAGYLTTLELESSFVSMEESKQKLVPIMTILLEELNASGRCTLPIDESNTIHLKVIEQRPDPPVAQEYDVPVFTKDKEDFFNSQWDLTTQQILPYIDGFRHIQKISAEADVELNLVRIAIQNLLYYGVVTLVSILQYSNVYCPTPKVQDLVDDKSLQEACLSYVTKQGHKRASLRDVFQLYCSLSPGTTVRDLIGRHPQQLQHVDERKLIQFGLMKNLIRRLQKYPVRVTREEQSHPARLYTGCHSYDEICCKTGMSYHELDERLENDPNIIICWK
